# Results: patent US9943519B2, “Pharmaceutical compounds” (F.HOFFMANN-LA ROCHE AG, priority 2006, dated 2018)
# Tests used:
# [1] = target: human PI3K isoform gamma (p110 gamma) (Homo sapiens, UniProt P48736); assay: p110 isoform selectivity scintillation proximity assay (gamma); assay type: biochemical; details: ratio of IC50 values, SPA, purified human PI3K isoforms
# Procedure: (§1) Binding of compounds of the invention from above Tables 1a and 1b to purified preparations of p110 isoforms alpha, beta, delta, and gamma was measured by a Scintillation Proximity Assay (SPA) to determine binding activity (IC50 μMol) and selectivity of binding of beta, delta, and gamma isoforms relative to alpha (Example 8). These values are expressed in Table 2.
# (§2) The ability of representative compounds from Tables 1a and 1b to inhibit the lipid kinase activity of purified preparations of human PI3K isoforms alpha, beta, delta, and gamma was determined by a radiometric scintillation proximity assay (SPA, GE Healthcare, Amersham Biosciences). Concentration dependent inhibition at 50% (IC50 μMol) was determined for all four isoforms […] and fold potency over beta, delta, and gamma relative to alpha was calculated for a selection of compounds in Table 2. Each compound has a p110 alpha IC50<1 μMol.
# [2] = target: human PI3K isoform beta (p110 beta) (Homo sapiens, UniProt P42338); assay: p110 isoform selectivity scintillation proximity assay (beta); assay type: biochemical; details: ratio of IC50 values, SPA, purified human PI3K isoforms
# Procedure: as §1, §2
# [3] = target: human PI3K isoform delta (p110 delta) (Homo sapiens, UniProt O00329); assay: p110 isoform selectivity scintillation proximity assay (delta); assay type: biochemical; details: ratio of IC50 values, SPA, purified human PI3K isoforms
# Procedure: as §1, §2
# Caco-2 cells = assay: Caco-2 permeability; assay type: in vitro ADME; details: bidirectional Caco-2 assay
# Procedure: Caco-2 cells were seeded onto Millipore Multiscreen plates at 1×10^5 cells/cm^2, and were cultured for 20 days. Assessment of compound permeability was subsequently conducted. The compounds were applied to the apical surface (A) of cell monolayers and compound permeation into the basolateral (B) compartment was measured. This was performed in the reverse direction (B−A) to investigate active transport. A permeability coefficient value, Papp, for each compound, a measure of the rate of permeation of the compound across the membrane, was calculated. Compounds were grouped into low (Papp</=[…]) or high (Papp>/=[…]) absorption potential based on comparison with control compounds with established human absorption.
# For assessment of a compound's ability to undergo active efflux, the ratio of basolateral (B) to apical (A) transport compared with A to B was determined. Values of B−A/A−B>/=1.0 indicated the occurrence of active cellular efflux. All of the compounds tested through the Caco-2 permeability screen had Papp values >/=[…].
# Sequence of human PI3K isoform beta (p110 beta) (P42338 whole entry, canonical isoform): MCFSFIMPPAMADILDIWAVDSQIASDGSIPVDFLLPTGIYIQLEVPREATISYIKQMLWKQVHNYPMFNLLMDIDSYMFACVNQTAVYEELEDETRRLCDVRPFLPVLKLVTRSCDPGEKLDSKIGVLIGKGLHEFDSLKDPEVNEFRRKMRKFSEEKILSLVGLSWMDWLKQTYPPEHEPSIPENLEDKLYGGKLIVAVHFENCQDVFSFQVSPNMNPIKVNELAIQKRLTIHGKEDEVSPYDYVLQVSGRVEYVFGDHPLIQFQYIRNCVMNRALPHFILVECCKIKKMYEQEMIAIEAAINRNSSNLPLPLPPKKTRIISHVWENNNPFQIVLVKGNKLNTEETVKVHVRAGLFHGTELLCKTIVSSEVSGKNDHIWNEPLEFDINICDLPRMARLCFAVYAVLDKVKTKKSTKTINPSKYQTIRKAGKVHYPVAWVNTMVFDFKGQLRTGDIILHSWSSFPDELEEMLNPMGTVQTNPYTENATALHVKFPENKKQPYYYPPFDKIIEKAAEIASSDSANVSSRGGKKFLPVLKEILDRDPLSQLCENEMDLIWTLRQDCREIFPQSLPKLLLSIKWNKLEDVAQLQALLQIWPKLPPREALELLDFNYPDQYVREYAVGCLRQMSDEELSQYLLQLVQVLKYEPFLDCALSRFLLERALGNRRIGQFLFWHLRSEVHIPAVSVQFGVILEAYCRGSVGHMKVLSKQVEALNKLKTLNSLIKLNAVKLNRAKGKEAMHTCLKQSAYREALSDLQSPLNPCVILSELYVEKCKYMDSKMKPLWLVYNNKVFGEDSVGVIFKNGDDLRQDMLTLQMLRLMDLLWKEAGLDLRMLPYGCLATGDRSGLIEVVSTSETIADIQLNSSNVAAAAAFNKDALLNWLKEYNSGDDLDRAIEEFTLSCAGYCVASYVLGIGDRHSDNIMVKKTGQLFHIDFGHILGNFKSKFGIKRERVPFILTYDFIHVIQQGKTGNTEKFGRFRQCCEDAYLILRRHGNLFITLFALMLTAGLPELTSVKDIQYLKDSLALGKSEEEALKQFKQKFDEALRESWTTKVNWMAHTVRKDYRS
# Sequence of human PI3K isoform beta (p110 beta) (P27986 whole entry partner, canonical isoform): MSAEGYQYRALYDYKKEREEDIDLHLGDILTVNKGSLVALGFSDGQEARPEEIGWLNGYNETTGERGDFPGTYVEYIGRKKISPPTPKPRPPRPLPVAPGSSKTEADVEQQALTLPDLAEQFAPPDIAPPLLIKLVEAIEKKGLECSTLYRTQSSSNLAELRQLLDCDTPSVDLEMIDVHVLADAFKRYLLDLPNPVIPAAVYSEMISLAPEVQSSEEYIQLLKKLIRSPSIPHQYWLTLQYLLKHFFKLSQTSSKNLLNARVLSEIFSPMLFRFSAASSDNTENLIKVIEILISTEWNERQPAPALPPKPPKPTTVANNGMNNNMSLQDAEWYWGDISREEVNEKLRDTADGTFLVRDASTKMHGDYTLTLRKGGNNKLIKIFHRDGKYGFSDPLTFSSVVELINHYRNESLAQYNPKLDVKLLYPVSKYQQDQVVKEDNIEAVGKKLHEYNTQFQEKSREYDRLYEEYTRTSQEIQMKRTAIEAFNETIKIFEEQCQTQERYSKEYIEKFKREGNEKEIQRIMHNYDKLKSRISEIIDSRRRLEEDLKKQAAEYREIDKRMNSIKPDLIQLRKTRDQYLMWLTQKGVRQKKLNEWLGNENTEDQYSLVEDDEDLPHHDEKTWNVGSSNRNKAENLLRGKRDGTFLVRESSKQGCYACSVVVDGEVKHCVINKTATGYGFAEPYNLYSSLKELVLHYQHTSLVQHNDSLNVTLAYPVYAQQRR
# Sequence of human PI3K isoform gamma (p110 gamma) (P48736 whole entry, canonical isoform): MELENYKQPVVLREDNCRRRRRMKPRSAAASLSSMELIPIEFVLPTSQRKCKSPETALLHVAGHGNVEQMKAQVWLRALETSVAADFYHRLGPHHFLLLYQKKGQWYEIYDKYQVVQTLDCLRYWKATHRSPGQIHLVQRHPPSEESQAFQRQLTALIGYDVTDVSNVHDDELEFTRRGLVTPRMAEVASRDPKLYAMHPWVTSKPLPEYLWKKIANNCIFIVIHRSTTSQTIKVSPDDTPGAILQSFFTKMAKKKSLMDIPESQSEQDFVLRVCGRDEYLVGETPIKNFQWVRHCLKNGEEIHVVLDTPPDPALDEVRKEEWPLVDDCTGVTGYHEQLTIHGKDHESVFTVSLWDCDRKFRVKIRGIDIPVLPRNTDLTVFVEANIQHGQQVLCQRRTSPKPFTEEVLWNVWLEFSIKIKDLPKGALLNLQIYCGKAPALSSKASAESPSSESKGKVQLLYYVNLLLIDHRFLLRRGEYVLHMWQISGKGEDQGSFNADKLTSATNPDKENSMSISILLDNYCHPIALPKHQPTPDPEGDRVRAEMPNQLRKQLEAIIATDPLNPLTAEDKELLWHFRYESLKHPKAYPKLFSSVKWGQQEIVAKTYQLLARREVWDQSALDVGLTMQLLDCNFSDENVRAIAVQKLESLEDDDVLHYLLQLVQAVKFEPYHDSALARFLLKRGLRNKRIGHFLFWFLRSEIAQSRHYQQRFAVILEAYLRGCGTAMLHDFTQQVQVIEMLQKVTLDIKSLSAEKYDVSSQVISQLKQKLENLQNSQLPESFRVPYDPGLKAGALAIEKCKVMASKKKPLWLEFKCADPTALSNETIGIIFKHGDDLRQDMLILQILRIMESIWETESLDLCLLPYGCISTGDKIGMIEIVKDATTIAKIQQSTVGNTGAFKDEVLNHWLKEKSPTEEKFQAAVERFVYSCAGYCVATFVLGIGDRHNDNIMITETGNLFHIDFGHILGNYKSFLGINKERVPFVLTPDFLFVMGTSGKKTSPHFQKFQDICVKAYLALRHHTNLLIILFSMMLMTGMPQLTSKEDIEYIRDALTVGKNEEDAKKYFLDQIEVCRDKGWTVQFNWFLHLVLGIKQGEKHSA
# Sequence of human PI3K isoform delta (p110 delta) (O00329 whole entry, canonical isoform): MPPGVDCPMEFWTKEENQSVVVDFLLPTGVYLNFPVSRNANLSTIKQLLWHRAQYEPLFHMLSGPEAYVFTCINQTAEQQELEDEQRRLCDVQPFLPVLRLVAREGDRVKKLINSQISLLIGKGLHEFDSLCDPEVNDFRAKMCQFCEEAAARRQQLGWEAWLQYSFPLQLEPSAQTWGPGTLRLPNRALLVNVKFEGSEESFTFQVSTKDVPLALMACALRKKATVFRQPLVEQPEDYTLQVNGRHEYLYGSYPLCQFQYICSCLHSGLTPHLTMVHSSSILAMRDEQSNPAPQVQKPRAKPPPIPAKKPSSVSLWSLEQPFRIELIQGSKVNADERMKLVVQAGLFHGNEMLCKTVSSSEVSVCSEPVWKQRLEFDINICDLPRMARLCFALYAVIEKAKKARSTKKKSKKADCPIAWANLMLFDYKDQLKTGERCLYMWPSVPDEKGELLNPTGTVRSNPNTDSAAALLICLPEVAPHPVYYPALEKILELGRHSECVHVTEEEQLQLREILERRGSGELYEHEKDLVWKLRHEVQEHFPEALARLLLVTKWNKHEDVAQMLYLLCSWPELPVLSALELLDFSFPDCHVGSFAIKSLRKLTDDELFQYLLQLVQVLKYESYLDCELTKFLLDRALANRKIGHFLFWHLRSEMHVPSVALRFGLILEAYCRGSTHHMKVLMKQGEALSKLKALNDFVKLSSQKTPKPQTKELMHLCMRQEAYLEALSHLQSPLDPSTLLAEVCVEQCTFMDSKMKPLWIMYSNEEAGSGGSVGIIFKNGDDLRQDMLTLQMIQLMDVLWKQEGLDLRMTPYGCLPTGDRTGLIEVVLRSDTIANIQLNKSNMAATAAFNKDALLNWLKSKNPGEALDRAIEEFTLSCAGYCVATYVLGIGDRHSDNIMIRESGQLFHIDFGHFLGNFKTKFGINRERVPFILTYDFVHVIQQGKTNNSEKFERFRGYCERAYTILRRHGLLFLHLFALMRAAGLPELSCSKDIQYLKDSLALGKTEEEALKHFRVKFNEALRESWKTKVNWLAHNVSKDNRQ
# Sequence of human PI3K isoform delta (p110 delta) (P27986 whole entry partner, canonical isoform): as the sequence (P27986 whole entry partner, canonical isoform) above
structure (smiles),measurement,setting,value
"Cc1nc2cc(-c3nc(N4CCOCC4)c4sc(CN5CCN(S(C)(=O)=O)CC5)cc4n3)ccc2[nH]1 [Compound 157, 6-(4-Methanesulfonyl-piperazin-1-ylmethyl)-2-(2-methyl-1H-benzoimidazol-5-yl)-4-morpholin-4-yl-thieno[3,2-d]pyrimidine]",alpha/gamma (fold potency over gamma relative to alpha),[1],>10 fold
same,alpha/beta (fold potency over beta relative to alpha),[2],>10 fold
same,alpha/delta (fold potency over delta relative to alpha),[3],<10 fold
"CS(=O)(=O)N1CCN(Cc2cc3c(N4CCOCC4)nc(-c4cnc5ccccc5c4)nc3s2)CC1 [Compound 95, 3-[6-(4-Methanesulfonyl-piperazin-1-ylmethyl)-4-morpholin-4-yl-thieno[2,3-d]pyrimidin-2-yl]-quinoline]",alpha/gamma (fold potency over gamma relative to alpha),[1],>10 fold
same,alpha/beta (fold potency over beta relative to alpha),[2],>10 fold
same,alpha/delta (fold potency over delta relative to alpha),[3],>10 fold
"CN(Cc1cc2nc(-c3cccc4[nH]ncc34)nc(N3CCOCC3)c2s1)CC1CCCN1S(C)(=O)=O (stereo not shown) [Compound 59, N-((2-(1H-indazol-4-yl)-4-morpholinothieno[3,2-d]pyrimidin-6-yl)methyl)-N-methyl(1-methylsulfonylpyrrolidin-2-yl)methanamine]",alpha/gamma (fold potency over gamma relative to alpha),[1],>10 fold
same,alpha/beta (fold potency over beta relative to alpha),[2],>10 fold
same,alpha/delta (fold potency over delta relative to alpha),[3],<10 fold
"CN1CCN(S(=O)(=O)C2CCN(Cc3cc4nc(-c5cccc6[nH]ncc56)nc(N5CCOCC5)c4s3)CC2)CC1 [Compound 24, 2-(1H-indazol-4-yl)-6-((4-N-4-methylpiperazinosulfonylpiperidin-1-yl)methyl)-4-morpholinothieno[3,2-d]pyrimidine]",alpha/gamma (fold potency over gamma relative to alpha),[1],>10 fold
same,alpha/beta (fold potency over beta relative to alpha),[2],>10 fold
same,alpha/delta (fold potency over delta relative to alpha),[3],<10 fold
"c1cc(-c2nc(N3CCOCC3)c3sc(CN4CCC(Cn5cccn5)CC4)cc3n2)c2cn[nH]c2c1 [Compound 62, 6-((4-((1H-pyrazol-1-yl)methyl)piperidin-1-yl)methyl)-2-(1H-indazol-4-yl)-4-morpholinothieno[3,2-d]pyrimidine]",alpha/gamma (fold potency over gamma relative to alpha),[1],>10 fold
same,alpha/beta (fold potency over beta relative to alpha),[2],>10 fold
same,alpha/delta (fold potency over delta relative to alpha),[3],<10 fold
"OC1CCCN(Cc2cc3nc(-c4cccc5[nH]ncc45)nc(N4CCOCC4)c3s2)C1 (stereo not shown) [Compound 65, 1-((2-(1H-indazol-4-yl)-4-morpholinothieno[3,2-d]pyrimidin-6-yl)methyl)piperidin-3-ol]",alpha/gamma (fold potency over gamma relative to alpha),[1],>10 fold
same,alpha/beta (fold potency over beta relative to alpha),[2],<10 fold
same,alpha/delta (fold potency over delta relative to alpha),[3],<10 fold
"COCCN(Cc1cc2nc(-c3cccc4[nH]ncc34)nc(N3CCOCC3)c2s1)C1CCN(S(C)(=O)=O)CC1 [Compound 34, N-((2-(1H-indazol-4-yl)-4-morpholinothieno[3,2-d]pyrimidin-6-yl)methyl)-N-(2-methoxyethyl)-1-methylsulfonylpiperidin-4-amine]",alpha/gamma (fold potency over gamma relative to alpha),[1],>10 fold
same,alpha/beta (fold potency over beta relative to alpha),[2],>10 fold
same,alpha/delta (fold potency over delta relative to alpha),[3],<10 fold
CN1CCN(Cc2cc3nc(-c4cccc(O)c4)nc(N4CCOCC4)c3s2)CC1 [PI540],B−A/A−B asymmetry index,Caco-2 cells,less than 1.0
